Assay type in all cases: cell-based
Test [1] deals with T1, human TLR8 (Homo sapiens, UniProt Q9NR97).
T1 construct: host or cells: HEK-Blue cells (HEK293-derived reporter line)
T1 sequence (Q9NR97 27-1041): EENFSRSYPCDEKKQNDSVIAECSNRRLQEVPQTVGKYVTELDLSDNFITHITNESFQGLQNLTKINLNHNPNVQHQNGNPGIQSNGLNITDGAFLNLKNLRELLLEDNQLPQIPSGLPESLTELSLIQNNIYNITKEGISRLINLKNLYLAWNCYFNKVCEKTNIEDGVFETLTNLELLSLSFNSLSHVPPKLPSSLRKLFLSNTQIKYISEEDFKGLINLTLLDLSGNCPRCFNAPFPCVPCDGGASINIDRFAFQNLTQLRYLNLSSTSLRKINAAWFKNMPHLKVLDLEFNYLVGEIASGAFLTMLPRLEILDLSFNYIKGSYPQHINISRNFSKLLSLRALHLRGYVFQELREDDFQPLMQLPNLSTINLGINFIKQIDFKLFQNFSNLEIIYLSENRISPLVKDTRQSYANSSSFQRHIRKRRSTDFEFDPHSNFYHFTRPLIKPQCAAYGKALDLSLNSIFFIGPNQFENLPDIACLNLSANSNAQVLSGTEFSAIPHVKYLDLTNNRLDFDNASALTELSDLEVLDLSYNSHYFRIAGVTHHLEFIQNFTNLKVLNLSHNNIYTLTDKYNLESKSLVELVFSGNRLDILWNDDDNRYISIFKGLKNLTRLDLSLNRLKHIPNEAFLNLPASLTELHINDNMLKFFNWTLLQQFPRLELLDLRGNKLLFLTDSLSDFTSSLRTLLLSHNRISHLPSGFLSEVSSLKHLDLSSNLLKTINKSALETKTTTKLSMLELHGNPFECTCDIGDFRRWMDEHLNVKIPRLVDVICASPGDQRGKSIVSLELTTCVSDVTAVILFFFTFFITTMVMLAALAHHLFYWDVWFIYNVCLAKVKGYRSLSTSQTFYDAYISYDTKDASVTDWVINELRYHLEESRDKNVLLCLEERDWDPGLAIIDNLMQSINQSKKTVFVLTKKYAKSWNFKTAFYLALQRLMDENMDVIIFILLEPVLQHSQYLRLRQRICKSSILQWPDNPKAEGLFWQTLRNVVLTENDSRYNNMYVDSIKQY
The experiment in a line: TLR8 inhibition reporter assay (HEK-Blue cells, SEAP reporter, R848 stimulation). As to conditions: HEK-Blue cells overexpressing human TLR8, SEAP reporter, R848 15.9 μM. The essentials: (§1)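 HEK-Blue cells overexpressing human TLR7, TLR8 or TLR9 (NF-κB/AP-1-driven SEAP) pre-treated 30 min at room temperature with compound (0.05 nM–50 μM), then stimulated with gardiquimod 7.5 μM (TLR7), R848 15.9 μM (TLR8) or ODN2006 5 nM (TLR9). SEAP read colorimetrically after 22 h at 37 °C; % inhibition calculated.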
Background: Reporter assays use an easily measured gene product as a stand-in for the process of interest.

The target of test [2] is T2, human TLR7 (Homo sapiens, UniProt Q9NYK1).
T2 construct: host or cells: HEK-Blue cells (HEK293-derived reporter line)
T2 sequence (Q9NYK1 27-1049): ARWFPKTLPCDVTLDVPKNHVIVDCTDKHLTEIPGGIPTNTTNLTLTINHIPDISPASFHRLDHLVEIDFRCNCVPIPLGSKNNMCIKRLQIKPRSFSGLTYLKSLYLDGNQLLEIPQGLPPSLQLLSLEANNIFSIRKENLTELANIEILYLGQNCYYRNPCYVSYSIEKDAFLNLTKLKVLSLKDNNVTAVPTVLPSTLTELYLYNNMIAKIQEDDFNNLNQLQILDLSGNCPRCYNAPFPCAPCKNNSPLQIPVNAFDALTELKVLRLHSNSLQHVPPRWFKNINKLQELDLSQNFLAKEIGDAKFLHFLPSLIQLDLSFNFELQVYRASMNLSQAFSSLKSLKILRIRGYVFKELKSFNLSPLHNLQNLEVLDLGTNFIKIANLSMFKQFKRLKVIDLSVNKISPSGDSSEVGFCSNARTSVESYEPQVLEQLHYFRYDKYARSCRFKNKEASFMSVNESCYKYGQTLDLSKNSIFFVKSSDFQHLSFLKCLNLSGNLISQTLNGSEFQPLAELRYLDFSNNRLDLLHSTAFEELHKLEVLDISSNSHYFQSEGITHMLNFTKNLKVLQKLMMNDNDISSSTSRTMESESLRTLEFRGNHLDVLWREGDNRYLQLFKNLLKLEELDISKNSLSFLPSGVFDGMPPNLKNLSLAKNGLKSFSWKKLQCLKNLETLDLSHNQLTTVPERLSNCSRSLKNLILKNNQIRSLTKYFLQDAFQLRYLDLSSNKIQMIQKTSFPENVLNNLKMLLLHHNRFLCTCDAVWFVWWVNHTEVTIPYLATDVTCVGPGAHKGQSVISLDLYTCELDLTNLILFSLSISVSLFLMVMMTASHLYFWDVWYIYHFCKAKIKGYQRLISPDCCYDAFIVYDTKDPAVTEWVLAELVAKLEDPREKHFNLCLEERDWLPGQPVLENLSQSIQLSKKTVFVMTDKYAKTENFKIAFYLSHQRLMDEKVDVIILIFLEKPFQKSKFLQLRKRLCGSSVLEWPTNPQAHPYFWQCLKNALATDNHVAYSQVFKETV
As to the kind of experiment: TLR7 inhibition reporter assay (HEK-Blue cells, SEAP reporter, gardiquimod stimulation). As to conditions: HEK-Blue cells overexpressing human TLR7, SEAP reporter, gardiquimod 7.5 μM. In short, it runs like this: as §1

Test [3] concerns the target T3, human TLR9 (Homo sapiens, UniProt Q9NR96).
T3 construct: host or cells: HEK-Blue cells (HEK293-derived reporter line)
T3 sequence (Q9NR96 26-1032): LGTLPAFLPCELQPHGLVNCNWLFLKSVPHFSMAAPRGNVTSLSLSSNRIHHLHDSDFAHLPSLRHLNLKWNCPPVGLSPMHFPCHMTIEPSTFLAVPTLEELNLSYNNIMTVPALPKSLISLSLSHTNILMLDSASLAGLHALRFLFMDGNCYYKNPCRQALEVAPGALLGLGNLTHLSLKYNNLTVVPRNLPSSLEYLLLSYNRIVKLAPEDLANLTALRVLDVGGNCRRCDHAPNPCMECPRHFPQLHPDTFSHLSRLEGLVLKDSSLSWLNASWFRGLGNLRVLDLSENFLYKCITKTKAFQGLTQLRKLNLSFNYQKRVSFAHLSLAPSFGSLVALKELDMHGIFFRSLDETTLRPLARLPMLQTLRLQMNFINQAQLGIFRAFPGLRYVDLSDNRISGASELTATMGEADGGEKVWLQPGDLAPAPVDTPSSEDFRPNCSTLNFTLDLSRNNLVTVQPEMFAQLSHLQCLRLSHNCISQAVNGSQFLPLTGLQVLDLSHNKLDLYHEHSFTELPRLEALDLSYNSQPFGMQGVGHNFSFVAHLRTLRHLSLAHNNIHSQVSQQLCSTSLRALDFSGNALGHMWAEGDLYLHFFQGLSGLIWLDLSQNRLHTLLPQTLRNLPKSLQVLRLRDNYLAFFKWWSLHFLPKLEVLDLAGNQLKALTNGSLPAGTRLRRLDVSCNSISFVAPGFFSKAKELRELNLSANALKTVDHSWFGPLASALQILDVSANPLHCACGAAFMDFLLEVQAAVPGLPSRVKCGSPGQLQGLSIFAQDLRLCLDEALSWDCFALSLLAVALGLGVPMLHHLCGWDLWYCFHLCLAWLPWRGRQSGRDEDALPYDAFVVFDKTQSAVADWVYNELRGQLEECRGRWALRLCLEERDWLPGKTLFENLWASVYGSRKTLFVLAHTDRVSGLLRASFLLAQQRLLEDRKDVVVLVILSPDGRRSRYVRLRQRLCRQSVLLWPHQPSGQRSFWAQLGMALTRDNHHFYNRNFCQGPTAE
As to the kind of experiment: TLR9 inhibition reporter assay (HEK-Blue cells, SEAP reporter, ODN2006 stimulation). To be noted: HEK-Blue cells overexpressing human TLR9, SEAP reporter, ODN2006 5 nM. The essentials: as §1

`CC(C)c1c(-c2ccnc3[nH]ncc23)[nH]c2ccc(C3CCN(C(=O)c4cc[nH]n4)CC3)cc12` [Example 615, (4-(3-isopropyl-2-(1H-pyrazolo[3,4-b]pyridin-4-yl)-1H-indol-5-yl)piperidin-1-yl)(1H-pyrazol-3-yl)methanone]: the half-inhibitory concentration (IC50) in test [1] was in the range of 100 to 1000 nM; in test [2], 100 to 1000 nM; in test [3] it was 1000 to 50000 nM.
`Cc1cn2cc(-c3[nH]c4ccc(C5CCN(C(=O)CN(C)C)CC5)cc4c3C(C)C)cc(C)c2n1` [Example 509, 2-(dimethylamino)-1-(4-(2-(2,8-dimethylimidazo[1,2-a]pyridin-6-yl)-3-isopropyl-1H-indol-5-yl)piperidin-1-yl)ethan-1-one]: the IC50 in test [1] is less than 100 nM; in test [2], less than 100 nM; in test [3], 100 to 1000 nM.
On to `Cc1c(-c2ncnc3[nH]ccc23)[nH]c2ccc(C3CCN(C4CCN(C(C)C)CC4)CC3)cc12` [Example 814, 4-(5-(1′-isopropyl-[1,4′-bipiperidin]-4-yl)-3-methyl-1H-indol-2-yl)-7H-pyrrolo[2,3-d]pyrimidine], for which the IC50 was less than 100 nM in test [1], 100 to 1000 nM in test [2] and less than 100 nM in test [3].
Turning to `Cc1nnn2ccc(-c3[nH]c4ccc(C5CCNCC5)cc4c3C(C)C)cc12` [Example 77, 5-(3-isopropyl-5-(piperidin-4-yl)-1H-indol-2-yl)-3-methyl-[1,2,3]triazolo[1,5-a]pyridine], the half-inhibitory concentration (IC50) is less than 100 nM in test [1], less than 100 nM in test [2] and 100 to 1000 nM in test [3].
`Cc1cc(-c2[nH]c3ccc(C4CCN(C(=O)CN5CCCC5)CC4)cc3c2C(C)C)cn2nnnc12` [Example 470, 1-(4-(3-isopropyl-2-(8-methyltetrazolo[1,5-a]pyridin-6-yl)-1H-indol-5-yl)piperidin-1-yl)-2-(pyrrolidin-1-yl) ethan-1-one]: the half-maximal inhibitory concentration (IC50) is less than 100 nM in test [1], less than 100 nM in test [2] and 1000 to 50000 nM in test [3].
Take `CC(C)c1c(-c2ccc3cnnn3c2)[nH]c2ccc(C3CCNCC3)cc12` [Example 79, 6-(3-isopropyl-5-(piperidin-4-yl)-1H-indol-2-yl)-[1,2,3]triazolo[1,5-a]pyridine]: the results for the IC50 in test [1], in test [2] and in test [3] were 100 to 1000 nM, less than 100 nM and 100 to 1000 nM, respectively.
Turning to `CC(C)c1c(-c2ccnc3[nH]ncc23)[nH]c2cc(F)c(C3CCN(CC4CCN(C(C)C)C4)CC3)cc12` (stereo not drawn) [Example 852, 4-(6-fluoro-3-isopropyl-5-(1-((1-isopropylpyrrolidin-3-yl)methyl)piperidin-4-yl)-1H-indol-2-yl)-1H-pyrazolo[3,4-b]pyridine], the IC50 in test [1] is less than 100 nM; in test [2] it was less than 100 nM; in test [3], 100 to 1000 nM.
As to `CC(=O)NCC(=O)N1CCC(c2ccc3[nH]c(-c4ccnc5[nH]ncc45)c(C(C)C)c3c2)CC1` [Example 567, N-(2-(4-(3-isopropyl-2-(1H-pyrazolo[3,4-b]pyridin-4-yl)-1H-indol-5-yl)piperidin-1-yl)-2-oxoethyl)acetamide], the IC50 in test [1] was 100 to 1000 nM; in test [2], less than 100 nM; in test [3], greater than 50000 nM.
Regarding `Cc1cccc2cc(CN3CCC(c4ccc5[nH]c(-c6ccnc7[nH]ncc67)c(C(C)C)c5c4)CC3)c(Cl)nc12` [Example 922, 2-chloro-3-((4-(3-isopropyl-2-(1H-pyrazolo[3,4-b]pyridin-4-yl)-1H-indol-5-yl)piperidin-1-yl)methyl)-8-methylquinoline], the half-inhibitory concentration (IC50) in test [1], in test [2] and in test [3] was 1000 to 50000 nM each time.
As to `CCc1c(-c2ccnc3[nH]ncc23)[nH]c2ccc(C3CCN(Cc4cn[nH]n4)CC3)cc12` [Example 892, 4-(5-(1-((2H-1,2,3-triazol-4-yl)methyl)piperidin-4-yl)-3-ethyl-1H-indol-2-yl)-1H-pyrazolo[3,4-b]pyridine], the 50% inhibitory concentration (IC50) in test [1] was less than 100 nM; in test [2], less than 100 nM; in test [3], 1000 to 50000 nM.
On to `CCOc1cc(-c2[nH]c3ccc(C4CCNCC4)cc3c2C(C)C)cc2ncnn12` [Example 157, 5-ethoxy-7-(3-isopropyl-5-(piperidin-4-yl)-1H-indol-2-yl)-[1,2,4]triazolo[1,5-a]pyridine], for which the half-maximal inhibitory concentration (IC50) is less than 100 nM in test [1], less than 100 nM in test [2] and 100 to 1000 nM in test [3].
With `CNC(=O)CN1CCC(c2ccc3[nH]c(-c4cc(C)c5oc(=O)n(C)c5c4)c(C(C)C)c3c2)CC1` [Example 336, 2-(4-(2-(3,7-dimethyl-2-oxo-2,3-dihydrobenzo[d]oxazol-5-yl)-3-isopropyl-1H-indol-5-yl)piperidin-1-yl)-N-methylacetamide], the 50% inhibitory concentration (IC50) was 100 to 1000 nM in test [1], less than 100 nM in test [2] and 1000 to 50000 nM in test [3].

The IC50 is the midpoint of a concentration-inhibition curve. Low readings indicate greater potency in that assay, high ones weaker potency in that assay.
